# According to US6277829A, “Process for preparing of aqueous formulation for opthalmic use” (S.I.F.I. Societa Industria Farmaceutica Italiana S.p.A., priority 1999, dated 2001):
# Read-outs that look alike come from different tables or passages of the source.
# Tests used:
# in vivo [1] = conditions: rabbit, topical or ocular, Ct (tissue concentration of azithromycin)
# Description: (§1) Twelve male white New Zealand rabbits (weighing 1.8-2.3 kg) have been randomly divided in three groups (consisting of four animals each).
# (§2) I Group: three instillations (animals have been sacrificed 6 hours after the first dosing)
# (§3) II Group: six instillations (animals have been sacrificed 12 hours after the first dosing)
# (§4) III Group: six instillations (animals have been sacrificed 24 hours after the first dosing)
# (§5) Aqueous humor has been drawn away with a 23-gauge needle attached to an insulin syringe of 1 ml. After enucleation the cornea has been excised at the limbus and removed from the eyeball. All specimens have been carefully weighed, then immediately frozen at -20° C. […] Each specimen has been ground and homogenized with 1 ml of PBS (2 min., 24,000 rpm). The suspension has been mixed with an equal volume of acetonitrile and stored at 0° C. After 1 hour, the samples have been centrifuged at 0° C. […] Aqueous humor has been directly mixed with acetonitrile before being centrifuged.
# St. Pyogenes ATCC 21547 = experiment: In vitro antibacterial activity, MBC; type: cell-based; conditions: Streptococcus pyogenes
# Description: (§6) In vitro bacteriostatic/bactericidal activity of azithromycin in different ophthalmic solutions has been evaluated as a function of ([H+]). Assessment of the activity it has been carried out by standardized method recommended by the National Committee for Clinical Laboratory Standards (NCCLS). […] Accordingly, three aliquots of Mueller-Hinton broth have been adjusted to the same pH of the azithromycin solutions (three) to be tested. […] Incubation for Staphylococcus spp. and Pseudomonas spp. needs aerobic conditions whereas Streptococcus spp. and Haernophilus spp. require partial anaerobic conditions during the period of incubation (5%, CO2).
# [2] = system: St. Pneumoniae ATCC 49619; experiment: In vitro antibacterial activity, MBC; type: cell-based; conditions: Streptococcus pneumoniae
# Description: as §6
# Ps. aeruginosa ATCC 9027 [3] = experiment: In vitro antibacterial activity, MBC; type: cell-based; conditions: Pseudomonas aeruginosa
# Description: as §6
# [4] = system: S. epidermidis ATCC 12228; experiment: In vitro antibacterial activity, MBC; type: cell-based; conditions: Staphylococcus epidermidis
# Description: as §6
# H. influenzae ATCC 9006 [5] = experiment: In vitro antibacterial activity, MBC; type: cell-based; conditions: Haemophilus influenzae
# Description: as §6
# [6] = system: Ps. aeruginosa ATCC 27853; experiment: In vitro antibacterial activity, MBC; type: cell-based; conditions: Pseudomonas aeruginosa
# Description: as §6
# H. influenzae ATCC 49247 [7] = experiment: In vitro antibacterial activity, MBC; type: cell-based; conditions: Haemophilus influenzae
# Description: as §6
# S. aureus ATCC 29213 [8] = experiment: In vitro antibacterial activity, MBC; type: cell-based; conditions: Staphylococcus aureus
# Description: as §6
# S. aureus ATCC 25923 [9] = experiment: In vitro antibacterial activity, MBC; type: cell-based; conditions: Staphylococcus aureus
# Description: as §6
# S. aureus ATCC 6538P [10] = experiment: In vitro antibacterial activity, MBC; type: cell-based; conditions: Staphylococcus aureus, ATCC6538P
# Description: as §6
# [11] = titration of azithromycin and clarithromycin, dispersed in water, with citric acid (FIG. 1, FIG. 2); type: physicochemical; conditions: for equivalent point: titration with citric acid
# gram-negative organisms = conditions: some gram-negative organisms, compared with other macrolides; cited from earlier work
# gram-positive organisms = conditions: compared with other macrolides; cited from earlier work
# [12] = Azithromycin distribution in aqueous humor after topical application; type: in vivo, white New Zealand rabbits; conditions: detection limit 3.8
# Description: as §1, §2, §3, §4, §5
# [13] = cited from earlier work
# [14] = system: St. Pneumoniae ATCC 49619; experiment: In vitro antibacterial activity, MIC; type: cell-based; conditions: Streptococcus pneumoniae
# Excerpt: (§7) In vitro bacteriostatic/bactericidal activity of azithromycin in different ophthalmic solutions has been evaluated as a function of ([H+]). Assessment of the activity it has been carried out by standardized method recommended by the National Committee for Clinical Laboratory Standards (NCCLS). In particular, three azithromycin solutions at different pH (6.5, 7.2, 7.8) in citrate-phosphate have been examined. Accordingly, three aliquots of Mueller-Hinton broth have been adjusted to the same pH of the azithromycin solutions (three) to be tested.
# (§8) MIC values (μg/ml) have been measured by turbidity standard method after incubation of azithromycin aliquots, at the different pH, ranging from 18 to 24 h. Incubation for Staphylococcus spp. and Pseudomonas spp. needs aerobic conditions whereas Streptococcus spp. and Haernophilus spp. require partial anaerobic conditions during the period of incubation (5%, CO2).
# (§9) Concentration of azithromycin able to inhibit the growth of the bacteria, after the period of incubation, is defined as the minimum inhibitory concentration (MIC).
# St. Pryogenes ATCC 21547 = experiment: In vitro antibacterial activity, MIC; type: cell-based
# Excerpt: as §7, §8, §9
# Ps. aeruginosa ATCC 9027 [15] = experiment: In vitro antibacterial activity, MIC; type: cell-based; conditions: Pseudomonas aeruginosa
# Excerpt: as §7, §8, §9
# [16] = system: S. epidermidis ATCC 12228; experiment: In vitro antibacterial activity, MIC; type: cell-based; conditions: Staphylococcus epidermidis
# Excerpt: as §7, §8, §9
# H. influenzae ATCC 9006 [17] = experiment: In vitro antibacterial activity, MIC; type: cell-based; conditions: Haemophilus influenzae
# Excerpt: as §7, §8, §9
# [18] = system: Ps. aeruginosa ATCC 27853; experiment: In vitro antibacterial activity, MIC; type: cell-based; conditions: Pseudomonas aeruginosa
# Excerpt: as §7, §8, §9
# H. influenzae ATCC 49247 [19] = experiment: In vitro antibacterial activity, MIC; type: cell-based; conditions: Haemophilus influenzae
# Excerpt: as §7, §8, §9
# S. aureus ATCC 29213 [20] = experiment: In vitro antibacterial activity, MIC; type: cell-based; conditions: Staphylococcus aureus
# Excerpt: as §7, §8, §9
# S. aureus ATCC 25923 [21] = experiment: In vitro antibacterial activity, MIC; type: cell-based; conditions: Staphylococcus aureus
# Excerpt: as §7, §8, §9
# S. aureus ATCC 6538P [22] = experiment: In vitro antibacterial activity, MIC; type: cell-based; conditions: Staphylococcus aureus, ATCC6538P
# Excerpt: as §7, §8, §9
# [23] = background statement; cited from earlier work
# [24] = Description: The final solution (100 ml), has been sterilized and distributed in appropriate vials.
# [25] = solubility in aqueous solution; type: physicochemical
# Excerpt: Formulations containing azithromycin at concentration ranging from 0.01 to 10% w/v, more particularly between 0.3 and 5% w/v, are the most preferred.
# in vivo [26] = experiment: in vivo; set-up: species or system white New Zealand rabbits; conditions: rabbit, topical or ocular, Ct (tissue concentration of azithromycin)
# Description: as §1, §2, §3, §4, §5
# Staphylococcus aureus = experiment: MIC90 for Staphylococcus aureus; type: cell-based
compound,measurement,setting,value
CC[C@H]1OC(=O)[C@H](C)[C@@H](O[C@H]2C[C@@](C)(OC)[C@@H](O)[C@H](C)O2)[C@H](C)[C@@H](O[C@@H]2O[C@H](C)C[C@H](N(C)C)[C@H]2O)[C@](C)(O)C[C@@H](C)CN(C)[C@H](C)[C@@H](O)[C@]1(C)O [azithromycin],concentration at 6 h,in vivo [1],< 100000 ng/g
same,concentration at 24 h,in vivo [1],216000 ng/g
same,concentration at 12 h,in vivo [1]; Average,222000 ng/g
same,concentration at 24 h,in vivo [1]; Average,169000 ng/g
same,MBC,"St. Pyogenes ATCC 21547; ATCC21547, pH 6.5",3 µg/mL
same,MBC,"St. Pyogenes ATCC 21547; ATCC21547, pH 7.2",0.6 µg/mL
same,MBC,"St. Pyogenes ATCC 21547; ATCC21547, pH 7.5",0.35 µg/mL
same,MBC,"[2]; ATCC49619, pH 6.5",3 µg/mL
same,MBC,"[2]; ATCC49619, pH 7.2",0.45 µg/mL
same,MBC,"[2]; ATCC49619, pH 7.5",0.3 µg/mL
same,MBC,"Ps. aeruginosa ATCC 9027 [3]; ATCC9027, pH 7.2",> 200 µg/mL
same,MBC,"Ps. aeruginosa ATCC 9027 [3]; ATCC9027, pH 7.5",200 µg/mL
same,MBC,"[4]; ATCC12228, pH 6.5",> 4 µg/mL
same,MBC,"[4]; ATCC12228, pH 7.2",3 µg/mL
same,MBC,"[4]; ATCC12228, pH 7.5",2 µg/mL
same,MBC,"H. influenzae ATCC 9006 [5]; ATCC9006, pH 6.5",6 µg/mL
same,MBC,"H. influenzae ATCC 9006 [5]; ATCC9006, pH 7.2",3.5 µg/mL
same,MBC,"H. influenzae ATCC 9006 [5]; ATCC9006, pH 7.5",3.5 µg/mL
same,MBC,"[6]; ATCC27853, pH 7.2",100 µg/mL
same,MBC,"[6]; ATCC27853, pH 7.5",50 µg/mL
same,MBC,"H. influenzae ATCC 49247 [7]; ATCC49247, pH 6.5",7 µg/mL
same,MBC,"H. influenzae ATCC 49247 [7]; ATCC49247, pH 7.2",3.5 µg/mL
same,MBC,"H. influenzae ATCC 49247 [7]; ATCC49247, pH 7.5",3 µg/mL
same,MBC,"S. aureus ATCC 29213 [8]; ATCC29213, pH 6.5",> 4 µg/mL
same,MBC,"S. aureus ATCC 29213 [8]; ATCC29213, pH 7.2",> 4 µg/mL
same,MBC,"S. aureus ATCC 29213 [8]; ATCC29213, pH 7.5",2.25 µg/mL
same,MBC,"S. aureus ATCC 25923 [9]; ATCC25923, pH 6.5",> 4 µg/mL
same,MBC,"S. aureus ATCC 25923 [9]; ATCC25923, pH 7.2",3.25 µg/mL
same,MBC,"S. aureus ATCC 25923 [9]; ATCC25923, pH 7.5",2 µg/mL
same,MBC,S. aureus ATCC 6538P [10]; pH 6.5,> 4 µg/mL
same,MBC,S. aureus ATCC 6538P [10]; pH 7.2,2.5 µg/mL
same,MBC,S. aureus ATCC 6538P [10]; pH 7.5,1.75 µg/mL
same,solubilization by citric acid,"[11]; citric acid, physiological range of pH",elevated concentration
same,equivalent point,[11],~7.0 pH
same,antibacterial activity,gram-negative organisms,superior antibacterial activity
same,antibacterial efficacy,gram-positive organisms,same efficacy
same,azithromycin concentration in aqueous humor,[12],< 3.8 µg/mL
same,intracellular distribution into specific tissues,[13]; after oral administration,extensive intracellular distribution
same,Half-life,[13]; in vivo,extremely elevated
same,MIC,"[14]; ATCC49619, pH 6.5",1.25 µg/mL
same,MIC,"[14]; ATCC49619, pH 7.2",0.25 µg/mL
same,MIC,"[14]; ATCC49619, pH 7.8",0.15 µg/mL
same,MIC,St. Pryogenes ATCC 21547; pH 6.5,1.5 µg/mL
same,MIC,St. Pryogenes ATCC 21547; pH 7.2,0.37 µg/mL
same,MIC,St. Pryogenes ATCC 21547; pH 7.8,0.2 µg/mL
same,MIC,"Ps. aeruginosa ATCC 9027 [15]; ATCC9027, pH 6.5",200 µg/mL
same,MIC,"Ps. aeruginosa ATCC 9027 [15]; ATCC9027, pH 7.2",25 µg/mL
same,MIC,"Ps. aeruginosa ATCC 9027 [15]; ATCC9027, pH 7.8",6.25 µg/mL
same,MIC,"[16]; ATCC12228, pH 6.5",2.5 µg/mL
same,MIC,"[16]; ATCC12228, pH 7.2",1.5 µg/mL
same,MIC,"[16]; ATCC12228, pH 7.8",0.75 µg/mL
same,MIC,"H. influenzae ATCC 9006 [17]; ATCC9006, pH 6.5",3 µg/mL
same,MIC,"H. influenzae ATCC 9006 [17]; ATCC9006, pH 7.2",2 µg/mL
same,MIC,"H. influenzae ATCC 9006 [17]; ATCC9006, pH 7.8",0.5 µg/mL
same,MIC,"[18]; ATCC27853, pH 6.5",> 200 µg/mL
same,MIC,"[18]; ATCC27853, pH 7.2",50 µg/mL
same,MIC,"[18]; ATCC27853, pH 7.8",12.5 µg/mL
same,MIC,"H. influenzae ATCC 49247 [19]; ATCC49247, pH 6.5",3 µg/mL
same,MIC,"H. influenzae ATCC 49247 [19]; ATCC49247, pH 7.2",2 µg/mL
same,MIC,"H. influenzae ATCC 49247 [19]; ATCC49247, pH 7.8",1 µg/mL
same,MIC,"S. aureus ATCC 29213 [20]; ATCC29213, pH 6.5",3.25 µg/mL
same,MIC,"S. aureus ATCC 29213 [20]; ATCC29213, pH 7.2",2.25 µg/mL
same,MIC,"S. aureus ATCC 29213 [20]; ATCC29213, pH 7.8",1 µg/mL
same,MIC,"S. aureus ATCC 25923 [21]; ATCC25923, pH 6.5",3 µg/mL
same,MIC,"S. aureus ATCC 25923 [21]; ATCC25923, pH 7.2",1.5 µg/mL
same,MIC,"S. aureus ATCC 25923 [21]; ATCC25923, pH 7.8",0.75 µg/mL
same,MIC,S. aureus ATCC 6538P [22]; pH 6.5,2.25 µg/mL
same,MIC,S. aureus ATCC 6538P [22]; pH 7.2,1 µg/mL
same,MIC,S. aureus ATCC 6538P [22]; pH 7.8,0.75 µg/mL
same,water solubility,[23],poor water solubility
same,effect of azithromycin concentration on stability,[24],does not affect the stability of the final product
same,solubility,"[25]; aqueous citric acid/phosphate, process of the invention (citric acid/phosphate), read-out: solubility of azithromycin in aqueous solution",> 100 mg/mL
same,concentration at 6 h,in vivo [26],< 200000 ng/g
same,concentration at 6 h,in vivo [26]; Average,250000 ng/g
same,concentration at 24 h,in vivo [26]; Average,420000 ng/g
same,MIC90,Staphylococcus aureus,2.25 µg/mL
CC[C@H]1OC(=O)[C@H](C)[C@@H](O[C@H]2C[C@@](C)(OC)[C@@H](O)[C@H](C)O2)[C@H](C)[C@@H](O[C@@H]2O[C@H](C)C[C@H](N(C)C)[C@H]2O)[C@](C)(OC)C[C@@H](C)C(=O)[C@H](C)[C@@H](O)[C@]1(C)O [clarithromycin],equivalent point,[11],~4.5 pH
same,solubility,"[25]; water, compared with azithromycin, read-out: maximum concentration in water",< 20 mg/mL
